# Source: patent US20200222400A1, “METHODS FOR THE TREATMENT OF NEUROLOGICAL DISORDERS” (Yumanity Therapeutics, Inc., priority 2019, published 2020)
# How the values were obtained:
# human SCD1 = target: T1, human SCD1 (Homo sapiens, UniProt O00767); test: Growth of humanized yeast expressing human SCD1 as sole desaturase; type: cell-based, humanized yeastized yeastized yeastized yeast; details: yeast growth
# T1 construct: host or cells: S. cerevisiae ole1Δ strain (W303 pdr1Δ pdr3Δ background), pRS316 plasmid, TDH3 promoter
# T1 sequence (O00767 1-359): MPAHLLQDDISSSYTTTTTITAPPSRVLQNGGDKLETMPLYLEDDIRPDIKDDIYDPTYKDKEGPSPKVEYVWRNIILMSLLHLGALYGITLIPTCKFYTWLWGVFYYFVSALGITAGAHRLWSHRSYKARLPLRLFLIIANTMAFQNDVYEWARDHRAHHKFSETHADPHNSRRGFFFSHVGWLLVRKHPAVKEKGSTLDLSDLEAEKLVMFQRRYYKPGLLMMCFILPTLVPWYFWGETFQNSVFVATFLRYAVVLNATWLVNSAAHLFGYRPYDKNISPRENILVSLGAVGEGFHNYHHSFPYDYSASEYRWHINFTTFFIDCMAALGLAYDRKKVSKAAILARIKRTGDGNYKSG
# Procedure: The coding sequence of yeast OLE1 was also cloned into this plasmid). These clones were then transformed into the ole1Δ strain and plated on CSM-Ura media (CSM lacking uracil) with 2% glucose (w/v) and independent colonies were isolated and amplified.
# All compound profiling experiments were performed using the same basic protocol. Different genetic backgrounds (e.g., gene deletions) or conditions (e.g., addition of oleic and palmitoleic acid) were replaced as indicated below.
# Compound administration was performed in two separate steps. First, 15 μL of CSM-Galactose (induces expression of toxic protein) was dispensed into clear 384 well assay plates using a MULTIDROP™ Combi reagent dispenser. […] The cultures described above were then diluted to a 2× concentration (0.03 and 0.08 for alpha-synuclein and ApoE, final OD600 of 0.015 and 0.04) in CSM-Galactose. For wild-type and Ole1/SCD1/SCD5 plasmid-containing strains, the 2× cell density was 0.02.
# For experiments using a plasmid-borne copy of Ole1, SCD1, or SCD5 (FIGS. 4B, 7, and 8), media lacking uracil (SX-Ura, where X is glucose, raffinose, or galactose), was used for all steps of the compound profiling protocol to ensure its maintenance throughout the assay.
# After yeast delivery, assay plates were incubated under humidified conditions at 30° C. for 24 to 40 h. ApoE4 rescue experiments were stopped at 24 h, aSyn experiments at 40 h, Ole1 at 24 h, and SCD1/SCD5 at 40 h. The growth of yeast was monitored by reading the OD600 of each well using a microplate reader (Perkin Elmer EnVision™).
# [1] = tested on: A53T α-synuclein transfected human iPSC-derived neurons; test: Neuron survival assay, A53T α-synuclein transfected human iPSC-derived neurons; type: cell-based; details: all tested concentrations, 3 μM to 0.3 μM, relative to DMSO
# Procedure: (§1) Transfected neuronal cultures were imaged at 12-24 h intervals for the indicated number of days by robotic microscopy. Fluorescence images were acquired with a Nikon Eclipse Ti microscope equipped with a motorized stage, 20× extra-long working distance (ELWD) objective, and an Andor Zyla cMOS camera. During image acquisition, microplates were enclosed in an on-stage environmental chamber controlling temperature, CO2, and humidity (Okolab). Images were processed and analyzed with custom-made scripts in R and ImageJ software. The lifetimes of individual neurons were determined by tracking fluorescently-labeled neurons in ImageJ. Neuronal death was determined to occur upon incidence of RFP signal loss or rupture of cell body. Cox proportional hazards analysis was used to generate cumulative hazard plots and determine the risk of neuron death. Log-rank test was used to determine statistical significance of survival curve divergence between neuron cohorts.
# A model of α-synuclein toxicity utilizing transient transfection into human iPSC-derived neurons was developed. […] This model was utilized to evaluate the role of SCD in α-synuclein-dependent neuronal toxicity. Human iPSC-derived neurons were transfected with a construct encoding A53T α-synuclein or an empty vector control. […]
# [2] = tested on: alpha-synuclein transfected U2OS cells; test: U2OS ATP assay (alpha-synuclein toxicity); type: cell-based, human; details: 72 h, titration
# Procedure: U2OS cells were trypsinized using 0.25% trypsin-EDTA (Thermo Fisher) for 5 min at 37° C. followed by centrifugation at 800 rpm for 5 min at room temperature. Cell pellets were re-suspended in SE solution (Lonza Biologics, Inc.) at a density of […]. Alpha-synuclein wild-type or empty control (pcDNA) plasmids were transfected at a ratio of […] per 1,000,000 cells. For genetic modifier studies, mRab1a was titrated at various concentrations in the presence of SNCA plasmids. Nucleofection was performed using 4D-NUCLEOFECTOR™ System (Lonza Biosciences, Inc.) under program code CM130 in either 20 μL Nucleocuvette™ strips or 100 μl single Nucleocuvettes™. Cells recovered at room temperature for 10-15 minutes after nucleofection before further handling. Pre-warmed medium was added and cells were thoroughly but gently mixed to a homogenous suspension before plating. Cells were seeded at 2×10^4 cells/100 μl/well into 96 well PLD-coated white plates (Corning, Inc.) using a customized semi-automated pipetting program (VIAFLO 384/96, Integra Biosciences).
# Powders of reference SCD inhibitors (CAY10566, A939572 and MF-438) were resuspended and serial diluted in DMSO. […] ATP content was then measured using the CellTiter-Glo® kit (Promega) with luminescence signals measured on an EnVision multimode plate reader (Perkin Elmer).
# [3] = tested on: human iPSC-derived neurons harboring the alpha-synuclein A53T mutation; test: Neuron survival assay, iPSC-derived neurons harboring alpha-synuclein A53T mutation; type: cell-based; details: 100 nM and 30 nM, relative to DMSO in A53T neurons
# Procedure: Human control and patient-derived trans-differentiated neurons were transfected with an RFP reporter driven by the human MAP2 promoter (MAP2-mApple) following the protocol for rat primary neurons as described above with the following exceptions: lipofection was carried out for approximately 1 h, and the final media replacement was with BrainPhys™ media supplemented with BDNF, GNDF, cAMP, ascorbic acid, and laminin.
# as §1
compound,measurement,setting,value
Cc1nnc(-c2ccc(N3CCC(Oc4cc(F)ccc4Cl)CC3)nn2)o1 [CAY10566],"half-maximal inhibitory concentration (IC50), SCD1 humanized strain",human SCD1,low nanomolar
same,risk of neuron death,[1],significantly reduced
same,cellular ATP levels,[2],significantly reversed alpha-synuclein-dependent decreases in ATP levels in a concentration-dependent fashion
same,risk of neuron death,[3],significantly reduced
